Test results: US11046716B2, “Beta-lactamase inhibitors” (priority 2015, dated 2021)

What was measured:
SHV-5 = molecular target: T1, SHV-5 (Klebsiella pneumoniae, UniProt P0A3M1); assay: β-lactamase enzyme inhibition assay, SHV-5 (cefotaxime substrate); format: biochemical
T1 construct: made in house; host or cells: E. coli BL21(DE3)
Summary of the method: (§1)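 Read-out is the rate of β-lactam ring hydrolysis monitored by absorbance: 300 nm for imipenem with KPC-2 and 260 nm for cefotaxime with SHV-5. Recombinant native enzymes were first incubated with compound at 37 °C for 15 min. The IC50 is the inhibitor concentration that halves the initial hydrolysis rate.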

KPC-2 = molecular target: T2, KPC-2 (Klebsiella pneumoniae, UniProt Q9F663); assay: β-lactamase enzyme inhibition assay, KPC-2 (imipenem substrate); format: biochemical; conditions: Class A; imipenem substrate, 300 nm; read-out: KPC-2
T2 construct: made in house; host or cells: E. coli BL21(DE3)
Summary of the method: as §1

VIM-2 = molecular target: T3, VIM-2 (Escherichia coli, UniProt Q5U7L7); assay: β-lactamase enzyme inhibition assay, VIM-2 (nitrocefin substrate); format: biochemical; conditions: Class B; nitrocefin substrate, 486 nm; read-out: VIM-2
T3 construct: made in house; host or cells: E. coli BL21(DE3)
Summary of the method: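 Nitrocefin hydrolysis, read at 486 nm over 10 min, served as the measure of VIM-2 activity. The enzyme had been incubated with compound for 15 min at 37 °C before 100 μM substrate was added, and IC50 values were fitted from percent inhibition of the initial rate.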

AmpC = molecular target: T4, AmpC (Enterobacter cloacae, UniProt P05364); assay: β-lactamase enzyme inhibition assay, p99 AmpC (nitrocefin substrate); format: biochemical
T4 construct: made in house; host or cells: E. coli BL21(DE3)
Summary of the method: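 Read-out is the rate of β-lactam ring hydrolysis monitored by absorbance. Recombinant native enzymes were first incubated with compound at 37 °C for 15 min. The IC50 is the inhibitor concentration that halves the initial hydrolysis rate.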

OXA-48 = OXA-48 (UniProt Q6XEC0); assay: β-lactamase enzyme inhibition assay, Class D oxacillinase; format: biochemical; conditions: read-out: OXA-48
[1] = test system: E. coli expressing the Class A Extended Spectrum Beta-Lactamase (ESBL) CTX-M-15; assay: Broth microdilution MIC assay with ceftazidime, E. coli CTX-M-15; format: cell-based; conditions: Fixed CAZ (ceftazidime) 4 μg/mL; E. coli ESBL4 CTX-M-15
Summary of the method: (§2)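 Visual MIC readout of the test compound after 16-20 hours at 37° C, measured in the presence of a constant 4 μg/ml β-lactam. Compound concentrations spanned 16 to 0.125 μg/mL in 2-fold steps in cation-adjusted Mueller Hinton broth.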

[2] = test system: E. cloacae expressing the Class C P99; assay: Broth microdilution MIC assay with ceftazidime, E. cloacae P99; format: cell-based; conditions: Fixed CAZ (ceftazidime) 4 μg/mL; E. cl. 144200 p99 AmpC
Summary of the method: as §2

[3] = test system: K. pneumoniae expressing the Class A carbapenemase KPC-2; assay: Broth microdilution MIC assay with meropenem, K. pneumoniae KPC-2; format: cell-based; conditions: Fixed Mero (meropenem) 4 μg/mL; K. p. 156319 KPC-3
Summary of the method: as §2

[4] = test system: P. aeruginosa expressing the Class B carbapenemase VIM-2; assay: Broth microdilution MIC assay with meropenem, P. aeruginosa VIM-2; format: cell-based; conditions: Fixed Mero (meropenem) 4 μg/mL; P. aerug. 2775 VIM-2
Summary of the method: as §2

[5] = test system: K. pneumoniae expressing the class A carbapenemase KPC-2 and the class B carbapenemase VIM-4; assay: Broth microdilution MIC assay with meropenem, K. pneumoniae KPC-2 and VIM-4; format: cell-based; conditions: Fixed Mero (meropenem) 4 μg/mL; K. p. A-1797 KPC-2 VIM-4
Summary of the method: as §2

[6] = test system: K. pneumoniae producing the Class D carbapenemase OXA-48; assay: Broth microdilution MIC assay with meropenem, K. pneumoniae OXA-48; format: cell-based; conditions: Fixed Mero (meropenem) 4 μg/mL; K. p. 11978 OXA-48
Summary of the method: as §2

T4 sequence (P05364 21-381): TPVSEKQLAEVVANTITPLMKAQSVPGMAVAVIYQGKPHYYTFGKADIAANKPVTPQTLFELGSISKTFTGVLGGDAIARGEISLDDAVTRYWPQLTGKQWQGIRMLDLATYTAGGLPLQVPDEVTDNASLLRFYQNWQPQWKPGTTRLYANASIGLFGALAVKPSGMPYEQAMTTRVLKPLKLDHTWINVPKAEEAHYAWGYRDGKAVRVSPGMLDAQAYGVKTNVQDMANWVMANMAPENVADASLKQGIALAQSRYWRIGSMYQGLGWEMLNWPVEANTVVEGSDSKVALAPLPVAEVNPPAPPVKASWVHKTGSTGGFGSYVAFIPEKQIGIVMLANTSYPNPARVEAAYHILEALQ
T2 sequence (Q9F663 25-293, looked up): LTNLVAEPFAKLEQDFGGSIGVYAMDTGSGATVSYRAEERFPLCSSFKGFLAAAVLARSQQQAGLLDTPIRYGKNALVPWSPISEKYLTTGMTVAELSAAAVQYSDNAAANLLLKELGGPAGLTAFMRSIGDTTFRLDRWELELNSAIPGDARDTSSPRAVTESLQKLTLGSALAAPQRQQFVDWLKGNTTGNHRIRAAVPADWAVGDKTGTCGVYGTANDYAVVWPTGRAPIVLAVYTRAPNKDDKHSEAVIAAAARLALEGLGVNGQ
T1 sequence (P0A3M1 22-286): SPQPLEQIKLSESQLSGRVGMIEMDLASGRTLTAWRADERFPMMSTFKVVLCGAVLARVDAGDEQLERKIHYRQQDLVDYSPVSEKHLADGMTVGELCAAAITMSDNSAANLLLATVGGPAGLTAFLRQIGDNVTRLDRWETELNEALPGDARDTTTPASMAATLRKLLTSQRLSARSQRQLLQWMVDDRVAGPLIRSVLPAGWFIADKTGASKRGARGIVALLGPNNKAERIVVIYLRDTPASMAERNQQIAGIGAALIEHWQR

| SMILES | IC50 (SHV-5) [µM] | IC50 (KPC-2) [µM] | IC50 (VIM-2) [µM] | IC50 (AmpC) [µM] | IC50 (OXA-48) [µM] | MIC (μg/mL) of Exemplary Compounds in presence of fixed β-lactams: E. coli ESBL4 CTX-M-15 [1] | MIC (μg/mL) of Exemplary Compounds in presence of fixed β-lactams: E. cl. 144200 p99 AmpC [2] | MIC (μg/mL) of Exemplary Compounds in presence of fixed β-lactams: K. p. 156319 KPC-3 [3] | MIC (μg/mL) of Exemplary Compounds in presence of fixed β-lactams: P. aerug. 2775 VIM-2 [4] | MIC (μg/mL) of Exemplary Compounds in presence of fixed β-lactams: K. p. A-1797 KPC-2 VIM-4 [5] | MIC (μg/mL) of Exemplary Compounds in presence of fixed β-lactams: K. p. 11978 OXA-48 [6] |
| --- | --- | --- | --- | --- | --- | --- | --- | --- | --- | --- | --- |
| O=C(Cn1cc(CNCCO)nn1)N[C@H]1Cc2cccc(C(=O)O)c2OB1O [Example 21, (R)-2-hydroxy-3-(2-(4-(((2-hydroxyethyl)amino)methyl)-1H-1,2,3-triazol-1-yl)acetamido)-3,4-dihydro-2H-benzo[e][1,2]oxaborinine-8-carboxylic acid] | < 0.1 | < 0.1 | < 0.1 | < 0.1 | 0.1 to 1 | C (C represents an MIC of <1 μg/mL) | C (C represents an MIC of <1 μg/mL) | B (B represents an MIC between 1 and 16 μg/mL inclusive) | B (B represents an MIC between 1 and 16 μg/mL inclusive) | B (B represents an MIC between 1 and 16 μg/mL inclusive) | B (B represents an MIC between 1 and 16 μg/mL inclusive) |
| N=CNCc1cn(CC(=O)N[C@H]2Cc3cccc(C(=O)O)c3OB2O)nn1 [Example 22, (R)-3-(2-(4-(formimidamidomethyl)-1H-1,2,3-triazol-1-yl)acetamido)-2-hydroxy-3,4-dihydro-2H-benzo[e][1,2]oxaborinine-8-carboxylic acid] | 0.1 to 1 | 0.1 to 1 | 0.1 to 1 | < 0.1 | 1 to 10 | C (C represents an MIC of <1 μg/mL) | C (C represents an MIC of <1 μg/mL) | C (C represents an MIC of <1 μg/mL) | C (C represents an MIC of <1 μg/mL) | B (B represents an MIC between 1 and 16 μg/mL inclusive) | B (B represents an MIC between 1 and 16 μg/mL inclusive) |
| NCc1nnc(CC(=O)N[C@H]2Cc3cccc(C(=O)O)c3OB2O)[nH]1 [Example 23, (R)-3-(2-(5-(aminomethyl)-4H-1,2,4-triazol-3-yl)acetamido)-2-hydroxy-3,4-dihydro-2H-benzo[e][1,2]oxaborinine-8-carboxylic acid] | < 0.1 | < 0.1 | 0.1 to 1 | < 0.1 | 0.1 to 1 | C (C represents an MIC of <1 μg/mL) | C (C represents an MIC of <1 μg/mL) | C (C represents an MIC of <1 μg/mL) | C (C represents an MIC of <1 μg/mL) | B (B represents an MIC between 1 and 16 μg/mL inclusive) | B (B represents an MIC between 1 and 16 μg/mL inclusive) |
| N=C(N)NCc1nc(CC(=O)N[C@H]2Cc3cccc(C(=O)O)c3OB2O)cs1 [Example 24, (R)-3-(2-(2-(guanidinomethyl)thiazol-4-yl)acetamido)-2-hydroxy-3,4-dihydro-2H-benzo[e][1,2]oxaborinine-8-carboxylic acid] | < 0.1 | < 0.1 | 0.1 to 1 | < 0.1 | 0.1 to 1 | C (C represents an MIC of <1 μg/mL) | C (C represents an MIC of <1 μg/mL) | B (B represents an MIC between 1 and 16 μg/mL inclusive) | B (B represents an MIC between 1 and 16 μg/mL inclusive) | B (B represents an MIC between 1 and 16 μg/mL inclusive) | B (B represents an MIC between 1 and 16 μg/mL inclusive) |
